Source: paper PMC9413440, “An Iterative Approach Guides Discovery of the FabI Inhibitor Fabimycin, a Late-Stage Antibiotic Candidate with In Vivo Efficacy against Drug-Resistant Gram-Negative Infections” (ACS Central Science, 2022)

What was measured:
[1] = system: E. coli MG1655; test: Whole-cell accumulation assay (LC-MS/MS); format: cell-based, Escherichia coli
Method: II. Materials and Methods for Biological Experiments
S. aureus ATCC 29213 and E. coli MG1655 were obtained from the American Type Culture Collection (ATCC). E. coli BW25113 and E. coli JW5503 were obtained from the Keio Collection. AR-bank strains were obtained from the Centers for Disease Control and Prevention and FDA Antibiotic Resistance Isolate Bank. […]
The accumulation assay4 was performed in triplicate with each batch containing tetracycline as a positive control. E. coli MG1655 was used in these experiments. For each replicate, 2.5 mL of an overnight culture of E. coli was diluted into 250 mL of fresh Luria Bertani (LB) broth (Lennox) and grown at 37 °C with shaking to an optical density (OD600) of 0.55. The bacteria were pelleted at 3220 r.c.f. for 10 min at 4 °C and the supernatant was discarded. The pellets were resuspended in 40 mL of phosphate buffered saline (PBS) and pelleted as before, and the supernatant discarded. […] The number of colony-forming units (CFUs) was determined by a calibration curve. […] Supernatants were analyzed by LC-MS/MS.
Samples were analyzed with the […] LC-MS/MS system (AB Sciex) with a 1200 series HPLC system (Agilent Technologies) including a degasser, an autosampler, and a binary pump. […]
The source temperature was 450 °C. […] Multiple reaction monitoring was used for quantification. […] All compounds evaluated in biological assays were ≥95% pure.

[2] = system: A. baumannii AR-0088; test: Dose-ranging and efficacy, neutropenic thigh infection; format: in vivo, mouse; details: neutropenic BALB/c mice, burden at 26 h
Source text: Neutropenic thigh infection model
Acclimated CD-1 mice (see above) were rendered neutropenic prior to the experiment via cyclophosphamide treatment. […]
Dose-ranging and efficacy of fabimycin
The protocol to assess fabimycin’s efficacy in A. baumannii-infected mice (strain: AR-0088) was approved by the IACUC at Pharmacology Discovery Services, Taiwan, Ltd. (protocol number: IM003-01282019). In this study, neutropenic female BALB/c mice 7-8 weeks in age from BioLASCO Taiwan (AAALAC-certified Charles River Licensee) weighing 18 ± 2 grams were used. The mice were rendered neutropenic and inoculated in the same method as used for the pharmacokinetic study. Fabimycin was formulated in 17% Cremophor EL/3% SBE-β-CD and IV administered. Colistin was formulated in 0.9% NaCl and subcutaneously (SC) administered.
5 or 30 minutes after dosing with respect to IV and SC route to detect acute toxicity, which was recorded and reported, […]
Animals were euthanized using compressed CO2 gas in a CO2 gas chamber. […] Bacterial burden in the tissue homogenates was determined by performing 10-fold serial dilutions and plating 0.1 mL of each to nutrient agar plates. Colonies were counted after 18 - 24 h incubation. The colony-forming unit value per tissue (CFU/thigh) was calculated. […]
IM011-12282020). […] Tissues were collected and pathogen burden evaluated by dilution plating technique on nutrient agar plates.

[3] = system: panel of 10 clinical isolates (two E. coli, four K. pneumoniae, four A. baumannii); test: MIC, Gram-negative clinical isolate challenge panel; format: cell-based; details: Gram-negative clinical isolates; fabimycin relative to (R)-7

| Structure (SMILES) | whole-cell accumulation [1] | reduction of bacterial burden ([2]; 75 mg/kg IV four times a day, NDM-1 containing strain) | dose at which significant dose-dependent responses begin ([2]; IV four times a day, doses 1.25–75 mg/kg) | difference in MIC activity between the two enantiomers [3] |
| --- | --- | --- | --- | --- |
| Cc1c(CN(C)C(=O)/C=C/c2cnc3c(c2)CCCC(=O)N3)oc2ccccc12 [compound 10] | reduced whole-cell accumulation | – | – | – |
| Cc1c(CN(C)C(=O)/C=C/c2cnc3c(c2)CC[C@H](N)C(=O)N3)oc2ccccc12 [fabimycin] | – | ~2 log(CFU/thigh) | 30 mg/kg | 64–128 fold |
